Measurements taken from patent US5221669A, “Antiviral compositions containing α-cyclodextrin sulfates alone and in combination with other known antiviral agents and glucocorticoids and methods of treating viral infections” (The United States of America as represented by the …, priority 1991, dated 1993).
Values joined by “and” are separate entries in the source; they are usually repeats but may differ in a detail not shown here. Identical values can stand only once. Like-named read-outs stand apart in the source and are kept apart here.

Assays:
PMNCs [1] = assay: Cell proliferation (cell count) with hydrocortisone phosphate and α-cyclodextrin sulfate; format: cell-based, human
Excerpt: Anti-HIV Effects of Sulphated Sugars in Presence of Glucocorticoids. HIV infections are at some later stages invariably complicated by pathologies which involve neovascularization, particularly those associated with Kaposi's sarcoma. Previously, Folkman et al., Science 243, 1490-1493, 1989, observed that B-CDS stimulates this particular pathology, but that this side-effect can be suppressed by glucocorticoids. […] Thus, pathological neovascularization can be avoided without comprising the anti-HIV effects.

HIV-1 = HIV-1 replication in PHA-stimulated PMNC cultures, RT method on culture supernatants; conditions: for Increase in virus production: concentrations of 1.0 μg ml^-1 or less; for Virus-enhancement effect: low drug concentrations
Experimental: Phytohaemagglutinin stimulated human peripheral blood mononuclear cells (PHA-PMNCs) were exposed to A-CDS and PPS and infected with HIV-1 as follows. PMNCs stimulated with 10.0 μg ml^-1 of PHA were further propagated in Medium B (RPMI-1640 medium with 10% fetal calf serum, 10% T-cell growth factor, and 1:500 goat antibody to human Interferon) at 10^8 cells ml^-1 in 20 ml and were exposed to different concentrations of drugs and simultaneously infected with 10000 c.p.m. ml^-1 of HIV-1 in 20 ml/culture flask. Cultures were tested for the quantity of cell-free virus in the culture supernatants using the RT method. RT activity in the disrupted virions was tested by using exogenous template poly (rA).(dT)12-18 as described (Anand et al., (1988), supra. The reaction mixture consisted of 50mM Tris-hydrochloride (pH 7.5), 5mM dithiothreitol 100mM KCI, 10mM MgClhd 2, 10 μM [^3 H]-TTP, Triton X-100 containing poly (rA).(dT)12-18 at 30 μg ml^-1 (mcg ml^-1). The reaction mixture was incubated at 37° C. for 2 hours, and [^3 H]-TTP incorporated into polymers was precipitated with 10% trichloroacetic acid, collected on a glass fibre filter, and counted in an LKB 1219 Rackbeta scintillation counter. Various cultures in the experiment are represented: .quadrature.-.quadrature., A-CDS; .smallcircle.-.smallcircle., PPS; .smallcircle.-.smallcircle., B-CDS. The values are means of two determinations tested in two separate experiments. The range of variation was no greater than 15%.
After two days, PMNCs were infected and studied for the change in virus replication in the presence of drugs and for the direct effect of drugs on cell multiplication.
PMNCs stimulated with PHA were further propagated in Medium B(RPMI-1640 with 10% fetal calf serum. 10% T-cell growth factor and 1:500 diluted goat antibody to human interferon). […] In general, four hours after injection and drug treatment, cultures were centrifuged to remove the extracellular virus and the cells were resuspended in fresh Medium B and replenished with appropriate drug concentrations. The percent change in virus replication was calculated as (x-c)/c×100, where x represented the experimental value and c represented the control value.
Reduction in RT activity was a reflection of the inhibition of virus production and therefore virus replication. The virus was prepared from the drug-treated and untreated culture supernatants.
Cultures were infected with virus and treated with the drugs simultaneously and were tested to evaluate the amount of virus production by the reverse transcriptase (RT) method.

PMNCs [2] = conditions: for % <Decrease (viable cells): decrease vs control; for Viable cells: controls 118 and 106; for % >Increase (viable cells): increase vs control
Experimental: Uninfected PMNCs, drug-treated PMNCs, and drug-treated and virus-infected PMNCs in different experiments were tested for drug toxicity and for the alterations in the numbers of viable cells in response to drug treatment by trypan blue exclusion method.
To understand the mechanism of virus enhancement and to evaluate the toxicity of the sulphated sugars to PMNCs in culture, cell viability counts were performed on trypan blue-stained cells.

[3] = molecular target: T1, reverse transcriptase enzyme of detergent-disrupted LAV-1BRU isolate (Human immunodeficiency virus type 1 (BRU ISOLATE), UniProt P03367); assay: Direct effect on reverse transcriptase enzyme activity of detergent-disrupted virus; format: biochemical; conditions: for RT activity: control 180; for % >Increase (RT activity): increase vs control; for % <Decrease (RT activity): decrease vs control; for Inhibition of RT enzyme activity: concentrations tested up to 25.0 μg ml^-1
T1 construct: poly(rA).oligo(dT) template
Excerpt: Microb. Agents Chemother. 32:684-688 (1988).
The direct effect of A-CDS, B-CDS and PPS on the reverse transcriptase enzyme activity by treating a detergent-disrupted LAV-1BRU isolate with these drugs and subjecting it to the RT method was examined.

HIV-1 p24 antigen = assay: p24 antigen ELISA in supernatant-free lysed cells; format: cell-based; conditions: supernatant-free lysed cells after exposure
Excerpt: Intracellular changes in the amount of HIV-1 following exposure to PPS were studied by measuring p24 antigen in the supernatant-free lysed cells.

[4] = hydrocortisone phosphate 5 μg/ml alone
[5] = α-cyclodextrin sulfate 2.5 μg/ml alone
[6] = α-cyclodextrin sulfate 5.0 μg/ml alone
[7] = α-cyclodextrin sulfate 10.0 μg/ml alone

With `C[C@]12CCC(=O)C=C1CC[C@@H]1[C@@H]2[C@@H](O)C[C@@]2(C)[C@H]1CC[C@]2(O)C(=O)COP(=O)(O)O` [hydrocortisone phosphate] the “Cell Count in million per mL” value (PMNCs [1]; [4]) was 1.2 million per mL and 1.0 million per mL and the “Inhibition of HIV-1 reverse transcriptase activity (%)” value (shortened to “Inhibition … (%)”) (HIV-1; [4]) was 39% and 20%.

`Cc1cn([C@H]2C[C@H](N=[N+]=[N-])[C@@H](CO)O2)c(=O)[nH]c1=O` [AZT, 3'-azido-2',3'-dideoxythy-midine] was tested, and the “% <Decrease (viable cells)” value (PMNCs [2]; 10nM) was 35%, the Viable cells (PMNCs [2]) was 72 10^4 ml^-1 and the “Replication (fold decrease)” value (HIV-1; AZT 10 nM alone) was 1.2 fold decrease. For the same compound, the RT activity (HIV-1; AZT 10 nM alone, control 164) was 134 c.p.m. × 10^3 ml^-1.

For Pentosan polysulfate [PPS], the Viable cells (PMNCs [2]; conc. 0.1 μg ml^-1) was 268 10^4 ml^-1, the “% >Increase (viable cells)” value (PMNCs [2]; conc. 0.1 μg ml^-1) was 141% and the Viable cells (PMNCs [2]; conc. 0.5 μg ml^-1) was 202 10^4 ml^-1. The “% <Decrease (viable cells)” value (PMNCs [2]; conc. 0.5 μg ml^-1) was 80%, the “Lymphoproliferative effect, increase in cell numbers relative to control cultures” value (PMNCs [2]; particularly at low drug concentrations) was “more lymphoproliferative activity than B-CDS and A-CDS” and the “Protective effect on infected cells from HIV-associated cytopathic effect” value (PMNCs [2]; virus-infected PMNCs, relative to virus-infected drug-free cultures) was “more than A-CDS and B-CDS”. For the same compound, the “Enhancement of the RT reaction” value ([3]; 0.1 and 0.5 μg ml^-1) was “enhancement of the reaction”, the RT activity ([3]; drug conc. 0.1 μg ml^-1) was 194 c.p.m. × 10^3 ml^-1 and the “% >Increase (RT activity)” value ([3]; drug conc. 0.1 μg ml^-1) was 7.7%. The RT activity ([3]; drug conc. 0.5 μg ml^-1) was 219 c.p.m. × 10^3 ml^-1, the “% >Increase (RT activity)” value ([3]; drug conc. 0.5 μg ml^-1) was 21.6% and the RT activity ([3]; drug conc. 2.0 μg ml^-1) was 163 c.p.m. × 10^3 ml^-1. The “% <Decrease (RT activity)” value ([3]; drug conc. 2.0 μg ml^-1) was 9.4%, the RT activity ([3]; drug conc. 4.0 μg ml^-1) was 22 c.p.m. × 10^3 ml^-1 and the “% <Decrease (RT activity)” value ([3]; drug conc. 4.0 μg ml^-1, 120 min) was 87% and 87.7%. For the same compound, the RT activity ([3]; drug conc. 5.0 μg ml^-1) was 17 c.p.m. × 10^3 ml^-1, the RT activity ([3]; drug conc. 6.0 μg ml^-1) was 17 c.p.m. × 10^3 ml^-1 and the “% <Decrease (RT activity)” value ([3]; drug conc. 6.0 μg ml^-1, 120 min) was 90.5%. For the same compound, the RT activity ([3]; drug conc. 8.0 μg ml^-1) was 9 c.p.m. × 10^3 ml^-1, the “% <Decrease (RT activity)” value ([3]; drug conc. 8.0 μg ml^-1, 120 min) was 95.0% and the RT activity ([3]; drug conc. 10.0 μg ml^-1) was 7 c.p.m. × 10^3 ml^-1. For the same compound, the “% <Decrease (RT activity)” value ([3]; drug conc. 10.0 μg ml^-1, 120 min) was 97.7%, the RT activity ([3]; drug conc. 15.0 μg ml^-1) was 4 c.p.m. × 10^3 ml^-1 and the “% <Decrease (RT activity)” value ([3]; drug conc. 15.0 μg ml^-1, 120 min) was 97.7%. For the same compound, the RT activity ([3]; drug conc. 20.0 μg ml^-1) was 2 c.p.m. × 10^3 ml^-1, the “% <Decrease (RT activity)” value ([3]; drug conc. 20.0 μg ml^-1, 120 min) was 99.8% and the RT activity ([3]; drug conc. 25.0 μg ml^-1) was 1 c.p.m. × 10^3 ml^-1. For the same compound, the “% <Decrease (RT activity)” value ([3]; drug conc. 25.0 μg ml^-1, 120 min) was 99.4%, the “Inhibition of HIV-1 replication in PMNC cultures” value (“Inhibition of HIV-1 replication” for short) (HIV-1) was “potent inhibitors” and the “Replication <% decrease” value (HIV-1; PPS 2.0 μg ml^-1 alone) was 77.0%. For the same compound, the RT activity (HIV-1; PPS 2.0 μg ml^-1 alone, control 187) was 43 c.p.m. × 10^3 ml^-1, the “Increase in virus production” value (HIV-1) was “up to a three-fold increase in virus production” and the “Virus-enhancement effect” value (HIV-1) was “virus-enhancement effect”. For the same compound, the “HIV-specific p24 in the cells” value (HIV-1 p24 antigen) was “decrease in HIV-specific p24 in the cells”.

With .varies.-cyclodextrin sulphate [A-CDS] the Viable cells (PMNCs [2]; conc. 0.1 μg ml^-1) was 140 10^4 ml^-1, the “% >Increase (viable cells)” value (PMNCs [2]; conc. 0.1 μg ml^-1) was 25% and the Viable cells (PMNCs [2]; conc. 0.5 μg ml^-1) was 128 10^4 ml^-1. The “% >Increase (viable cells)” value (PMNCs [2]; conc. 0.5 μg ml^-1) was 14%, the “Cell Count in million per mL” value (PMNCs [1]; [5]) was 1.2 million per mL and the “Cell Count in million per mL” value (PMNCs [1]; [6]) was 1.3 million per mL. The “Cell Count in million per mL” value (PMNCs [1]; [7]) was 1.5 million per mL, the “Inhibition of RT enzyme activity” value [3] was “No inhibition” and the “Inhibition of HIV-1 replication” value (HIV-1) was “potent inhibitors”. The “Replication (fold decrease)” value (HIV-1; A-CDS 0.5 μg ml^-1 alone) was 2.8 fold decrease, the RT activity (HIV-1; A-CDS 0.5 μg ml^-1 alone, control 164) was 57 c.p.m. × 10^3 ml^-1 and the “Replication (fold decrease)” value (HIV-1; A-CDS 1.5 μg ml^-1 alone) was 4.9 fold decrease. The RT activity (HIV-1; A-CDS 1.5 μg ml^-1 alone, control 164) was 33 c.p.m. × 10^3 ml^-1, the “Relative anti-HIV potency from the dose-response relationship” value (HIV-1; PMNC cultures, infected and treated simultaneously) was “more potent in anti-HIV action than PPS, B-CDS and DS” and the “Virus-enhancement effect” value (HIV-1) was “lacks the virus-enhancement effect”. The “Inhibition … (%)” value (HIV-1; α-cyclodextrin sulfate 0.5 μg/ml alone) was 77%, the “Inhibition … (%)” value (HIV-1; α-cyclodextrin sulfate 1.0 μg/ml alone) was 72% and the “Inhibition … (%)” value (HIV-1; [5]) was 80%. For the same compound, the “Inhibition … (%)” value (HIV-1; [6]) was 83% and the “Inhibition … (%)” value (HIV-1; [7]) was 91%.

For β-cyclodextrin sulphate [B-CDS], the Viable cells (PMNCs [2]; conc. 0.1 μg ml^-1) was 188 10^4 ml^-1, the “% >Increase (viable cells)” value (PMNCs [2]; conc. 0.1 μg ml^-1) was 67% and the Viable cells (PMNCs [2]; conc. 0.5 μg ml^-1) was 140 10^4 ml^-1. The “% >Increase (viable cells)” value (PMNCs [2]; conc. 0.5 μg ml^-1) was 25%, the “Inhibition of RT enzyme activity” value [3] was “No inhibition” and the “Inhibition of HIV-1 replication” value (HIV-1) was “potent inhibitors”. The “Replication <% decrease” value (HIV-1; B-CDS 2.5 μg ml^-1 alone) was 40.1%, the RT activity (HIV-1; B-CDS 2.5 μg ml^-1 alone, control 187) was 112 c.p.m. × 10^3 ml^-1 and the “Increase in virus production” value (HIV-1) was “up to a three-fold increase in virus production”. The “Virus-enhancement effect” value (HIV-1) was “virus-enhancement effect”.

dextran sulphate [DS] was tested, and the Viable cells (PMNCs [2]; conc. 0.1 μg ml^-1) was 170 10^4 ml^-1, the “% <Decrease (viable cells)” value (PMNCs [2]; conc. 0.1 μg ml^-1) was 51% and the Viable cells (PMNCs [2]; conc. 0.5 μg ml^-1) was 90 10^4 ml^-1. The “% >Increase (viable cells)” value (PMNCs [2]; conc. 0.5 μg ml^-1) was 19% and the “Virus-enhancement effect” value (HIV-1) was “virus-enhancement effect”.
